The source made the active and inactive calls.
Columns and labels:
[1] = target: T1, Tyrosine-protein phosphatase non-receptor type 7 (Homo sapiens, UniProt P35236); format: functional
T1 sequence (P35236 whole entry): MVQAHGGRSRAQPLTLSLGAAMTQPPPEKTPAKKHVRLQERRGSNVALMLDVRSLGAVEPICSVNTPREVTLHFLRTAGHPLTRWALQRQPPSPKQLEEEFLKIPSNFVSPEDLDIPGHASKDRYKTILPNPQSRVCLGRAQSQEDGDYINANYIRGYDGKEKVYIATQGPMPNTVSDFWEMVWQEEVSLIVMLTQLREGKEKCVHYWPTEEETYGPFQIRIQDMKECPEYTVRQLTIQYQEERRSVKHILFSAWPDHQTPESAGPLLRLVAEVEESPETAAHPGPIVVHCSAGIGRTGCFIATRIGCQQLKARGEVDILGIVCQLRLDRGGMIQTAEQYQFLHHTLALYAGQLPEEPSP

[2] = target: T2, Tyrosine-protein phosphatase non-receptor type 22 (Homo sapiens, UniProt Q9Y2R2); format: functional
T2 sequence (Q9Y2R2 whole entry): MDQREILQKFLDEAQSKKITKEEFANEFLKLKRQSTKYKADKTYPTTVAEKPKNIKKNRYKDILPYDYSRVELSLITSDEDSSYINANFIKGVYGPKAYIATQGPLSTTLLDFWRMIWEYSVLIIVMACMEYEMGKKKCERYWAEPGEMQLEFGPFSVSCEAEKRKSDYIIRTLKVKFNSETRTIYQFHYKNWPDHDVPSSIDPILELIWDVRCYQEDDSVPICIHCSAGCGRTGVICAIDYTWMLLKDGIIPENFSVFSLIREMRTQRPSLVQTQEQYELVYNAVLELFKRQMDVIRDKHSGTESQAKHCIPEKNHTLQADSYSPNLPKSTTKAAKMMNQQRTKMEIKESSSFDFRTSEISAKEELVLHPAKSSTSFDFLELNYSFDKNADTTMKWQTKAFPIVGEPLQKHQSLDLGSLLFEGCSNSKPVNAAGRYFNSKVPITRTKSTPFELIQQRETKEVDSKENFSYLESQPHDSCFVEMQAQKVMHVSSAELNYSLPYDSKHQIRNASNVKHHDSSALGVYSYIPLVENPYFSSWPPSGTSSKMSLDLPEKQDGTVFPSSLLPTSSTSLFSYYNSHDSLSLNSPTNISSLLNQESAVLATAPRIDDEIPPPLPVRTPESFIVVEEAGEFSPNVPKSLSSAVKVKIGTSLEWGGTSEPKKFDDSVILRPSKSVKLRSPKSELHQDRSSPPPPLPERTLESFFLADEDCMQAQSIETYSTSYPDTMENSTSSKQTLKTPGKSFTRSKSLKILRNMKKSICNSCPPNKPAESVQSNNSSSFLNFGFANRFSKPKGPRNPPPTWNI

[3] = target: T2, Tyrosine-protein phosphatase non-receptor type 22; format: functional; remark: listed apart in the source
[4] = Late stage assay provider results from the probe development effort to identify inhibitors of Protein Phosphatase Methylesterase 1 (PME-1): luminescence-based biochemical dose response assay to determine cytotoxicity of inhibitor compounds. [Related pubchem assays (depositor defined):AID2130, AID2143, AID2171, AID2174, AID2177, AID2232, AID2233, AID2291, AID2363, AID2365, AID2366, AID2368, AID2369, AID2371, AID463124, AID463130, AID463131, AID463132, AID463146, AID463149] Panel member name: Fetal Calf Serum; format: toxicity
[5] = Late stage assay provider results from the probe development effort to identify inhibitors of Protein Phosphatase Methylesterase 1 (PME-1): luminescence-based […] dose response assay to determine cytotoxicity of inhibitor compounds. [Related pubchem assays (depositor defined):AID2130, AID2143, AID2171, AID2174, AID2177, AID2232, AID2233, AID2291, AID2363, AID2365, AID2366, AID2368, AID2369, AID2371, AID463124, AID463130, AID463131, AID463132, AID463146, AID463149] Panel member name: Serum-free Media; format: toxicity
[6] = tested on: H9c2; experiment: cells; format: functional, cell-based; settings: Rattus norvegicus, H9c2, Myocardium;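 further: confirmatory concentration-response retest of ultra-high-throughput screening hits for modulation of myocardial damage; cell death induced by hydrogen peroxide oxidative stress; compound pretreatment for 60 min then peroxide exposure for 2 h; potency is for protecting the cells against peroxide damage rather than for killing them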
[7] = target: T3, Fatty acid synthase (Homo sapiens, UniProt P49327); experiment: FAS thioesterase domain inhibitors, dose response, biochemical, endpoint fluorescence intensity, uHTS hits (AID 624327); format: functional;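 further: fluorescence from hydrolysis of an O-methyl fluorescein acyl ester substrate by the enzyme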
[8] = target: T3, Fatty acid synthase; experiment: FAS thioesterase domain inhibitors, dose response, biochemical, kinetic fluorescence intensity (AID 624326); format: functional;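 further: rate of fluorescence rise from hydrolysis of a fluorogenic O-methyl fluorescein ester substrate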
[9] = target: T4, G-protein coupled receptor 55 (Homo sapiens, UniProt Q9Y2T6); experiment: GPR55 antagonists blocking LPI-driven arrestin recruitment, primary screen, imaging, U2OS, beta-arrestin-GFP, LPI agonist (AID 2013); format: functional;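 further: antagonist potency measured as reduced agonist-driven arrestin aggregation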
[10] = target: T5, Cannabinoid receptor 1 (Homo sapiens, UniProt P21554); experiment: SAR analysis of antagonists of the Cannabinoid Receptor 1 using an Image-Based Assay - Set 2. [Related pubchem assays (depositor defined):AID2013, AID2026]; format: functional
[11] = target: T6, G-protein coupled receptor 35 (Homo sapiens, UniProt Q9HC97); experiment: SAR analysis of Agonists of the GPR35 Receptor using an Image-Based Assay - Set 2. [Related pubchem assays (depositor defined):AID2013, AID2026]; format: functional
[12] = target: T7, Cannabinoid receptor 2 (Homo sapiens, UniProt P34972); experiment: SAR analysis of antagonists of the Cannabinoid Receptor 2 using an Image-Based Assay. [Related pubchem assays (depositor defined):AID2013, AID2026]; format: functional
[13] = target: T5, Cannabinoid receptor 1; experiment: SAR analysis of agonists of the Cannabinoid Receptor 1 using an Image-Based Assay - Set 2. [Related pubchem assays (depositor defined):AID2013, AID2026]; format: functional
[14] = target: T6, G-protein coupled receptor 35; experiment: SAR analysis of Antagonists of the GPR35 Receptor using an Image-Based Assay - Set 3. [Related pubchem assays (depositor defined):AID2013, AID2026]; format: functional
[15] = target: T4, G-protein coupled receptor 55; experiment: GPR55 antagonist potency of analogs, SAR follow-up, imaging, U2OS, beta-arrestin-GFP, LPI agonist, set 2 (AID 2820); format: functional
[16] = target: T7, Cannabinoid receptor 2; experiment: SAR analysis of agonists of the Cannabinoid Receptor 2 using an Image-Based Assay. [Related pubchem assays (depositor defined):AID2013, AID2026]; format: functional
[17] = target: Sphingosine 1-phosphate receptor 1 (Homo sapiens, UniProt P21453); experiment: Fluorescence-based counterscreen assay for S1P4 agonists: Cell-based dose response high throughput screening assay to identify agonists of the Sphingosine 1-Phosphate Receptor 1 (S1P1). [Related pubchem assays (depositor defined):AID1509, AID1523, AID1801, AID463107, AID463118, AID463119, AID463122, AID463123, AID463129, AID463225, AID504400, AID504460]; format: functional
[18] = target: Sphingosine 1-phosphate receptor 4 (Homo sapiens, UniProt O95977); experiment: Fluorescence dose response cell-based high throughput screening assay for agonists of the Sphingosine 1-Phosphate Receptor 4 (S1P4). [Related pubchem assays: 1509 (Primary screen.), 1523 (Confirmation screen in triplicates.)]; format: functional
[19] = target: Nucleotide-binding oligomerization domain-containing protein 1 (Homo sapiens, UniProt Q9Y239); experiment: SAR analysis of compounds that inhibit NOD1 - Set 3. [Related pubchem assays (depositor defined):AID1566, AID1575, AID1578, AID1849, AID1852, AID2333, AID2335, AID2466]; format: functional
[20] = target: Tumor necrosis factor (Homo sapiens, UniProt P01375); experiment: TNFa-triggered NF-kB activation inhibitors, SAR follow-up, cell-based, set 3 (AID 2801); format: functional
[21] = tested on: HEK293; experiment: SAR analysis of compounds that are cytotoxic to HEK293 - Set 3. [Related pubchem assays (depositor defined):AID1575, AID1578, AID1848, AID1849, AID2001, AID2333, AID2334, AID2335, AID2337, AID2469]; format: functional, cell-based; settings: Homo sapiens
[22] = target: Nucleotide-binding oligomerization domain-containing protein 2 (Homo sapiens, UniProt Q9HC29); experiment: NOD2 signaling inhibitors, analog potency, SAR follow-up, cell-based, set 3 (AID 2799); format: functional
[23] = target: T8, Kappa-type opioid receptor (Homo sapiens, UniProt P41145); experiment: KOR agonist analogs, arrestin-GFP redistribution, SAR follow-up, imaging, image-based, set 3 (AID 488833); format: functional
[24] = target: Mu-type opioid receptor (Homo sapiens, UniProt P35372); experiment: SAR Analysis of Agonists of the MOR Receptor using an Image-Based Assay - Set 3. [Related pubchem assays (depositor defined):AID1777, AID1785, AID1786, AID1966, AID2133, AID2136, AID2284, AID2285, AID2352]; format: functional
[25] = target: Delta-type opioid receptor (Homo sapiens, UniProt P41143); experiment: SAR Analysis of Agonists of the DOR Receptor using an Image-Based Assay - Set 3. [Related pubchem assays (depositor defined):AID1777, AID1786]; format: functional
[26] = target: T8, Kappa-type opioid receptor; experiment: SAR analysis of small molecule agonists of the kappa opioid receptor via a luminescent beta-arrestin assay - Set 3. [Related pubchem assays (depositor defined):AID1777, AID1785, AID1786, AID1966, AID2133, AID2136, AID2284, AID2500]; format: functional
[27] = decrease of PhoP-driven GFP reporter signal, S. Typhimurium, dose response, PhoP regulon inhibitor project, purified and synthesized compounds, set 2 (AID 2831); format: functional
[28] = insulin promoter down-regulators in MIN6 cells, imaging, high-content screening, mouse beta cells (AID 1628); format: functional
[29] = cytotoxicity in MIN6 insulinoma cells, dose response, cytotoxicity control, cell-based, mouse insulinoma (AID 2122); format: functional;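 further: confirmatory high-throughput counterscreen run to flag cytotoxic compounds; mouse MIN-6 beta cells carrying an insulin promoter eGFP reporter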
[30] = target: Ion channel NompC (Danio rerio, UniProt Q7T1G6); experiment: Dose response cell-based high-throughput screening assay for agonists of the transient receptor potential channel N1 (TRPN1). [Related pubchem assays (depositor defined):AID1424, AID1448]; format: functional
[31] = target: Mucolipin-3 (Homo sapiens, UniProt Q8TDD5); experiment: Fluorescence counterscreen assay for […] agonists: dose response cell-based high-throughput screening assay to identify agonists of the transient receptor potential channel ML3 (TRPML3). [Related pubchem assays: 1424, 1448 ]; format: functional
[32] = target: T9, Carboxy-terminal domain RNA polymerase II polypeptide A small phosphatase 1 (Homo sapiens, UniProt Q9GZU7); experiment: inhibitors of CTDSP1, concentration-response testing, biochemical assay, absorbance-based, actives from ultra-high-throughput screening (AID 540297); format: functional
T9 sequence (Q9GZU7 whole entry): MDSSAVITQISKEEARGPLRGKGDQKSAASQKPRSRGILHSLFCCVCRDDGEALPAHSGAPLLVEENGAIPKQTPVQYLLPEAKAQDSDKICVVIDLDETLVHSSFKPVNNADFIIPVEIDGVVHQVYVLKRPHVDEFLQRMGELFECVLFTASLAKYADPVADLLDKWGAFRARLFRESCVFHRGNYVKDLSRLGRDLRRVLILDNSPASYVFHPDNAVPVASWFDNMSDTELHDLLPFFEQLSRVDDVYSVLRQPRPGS

T3 sequence (P49327 whole entry, the tested form may be a part): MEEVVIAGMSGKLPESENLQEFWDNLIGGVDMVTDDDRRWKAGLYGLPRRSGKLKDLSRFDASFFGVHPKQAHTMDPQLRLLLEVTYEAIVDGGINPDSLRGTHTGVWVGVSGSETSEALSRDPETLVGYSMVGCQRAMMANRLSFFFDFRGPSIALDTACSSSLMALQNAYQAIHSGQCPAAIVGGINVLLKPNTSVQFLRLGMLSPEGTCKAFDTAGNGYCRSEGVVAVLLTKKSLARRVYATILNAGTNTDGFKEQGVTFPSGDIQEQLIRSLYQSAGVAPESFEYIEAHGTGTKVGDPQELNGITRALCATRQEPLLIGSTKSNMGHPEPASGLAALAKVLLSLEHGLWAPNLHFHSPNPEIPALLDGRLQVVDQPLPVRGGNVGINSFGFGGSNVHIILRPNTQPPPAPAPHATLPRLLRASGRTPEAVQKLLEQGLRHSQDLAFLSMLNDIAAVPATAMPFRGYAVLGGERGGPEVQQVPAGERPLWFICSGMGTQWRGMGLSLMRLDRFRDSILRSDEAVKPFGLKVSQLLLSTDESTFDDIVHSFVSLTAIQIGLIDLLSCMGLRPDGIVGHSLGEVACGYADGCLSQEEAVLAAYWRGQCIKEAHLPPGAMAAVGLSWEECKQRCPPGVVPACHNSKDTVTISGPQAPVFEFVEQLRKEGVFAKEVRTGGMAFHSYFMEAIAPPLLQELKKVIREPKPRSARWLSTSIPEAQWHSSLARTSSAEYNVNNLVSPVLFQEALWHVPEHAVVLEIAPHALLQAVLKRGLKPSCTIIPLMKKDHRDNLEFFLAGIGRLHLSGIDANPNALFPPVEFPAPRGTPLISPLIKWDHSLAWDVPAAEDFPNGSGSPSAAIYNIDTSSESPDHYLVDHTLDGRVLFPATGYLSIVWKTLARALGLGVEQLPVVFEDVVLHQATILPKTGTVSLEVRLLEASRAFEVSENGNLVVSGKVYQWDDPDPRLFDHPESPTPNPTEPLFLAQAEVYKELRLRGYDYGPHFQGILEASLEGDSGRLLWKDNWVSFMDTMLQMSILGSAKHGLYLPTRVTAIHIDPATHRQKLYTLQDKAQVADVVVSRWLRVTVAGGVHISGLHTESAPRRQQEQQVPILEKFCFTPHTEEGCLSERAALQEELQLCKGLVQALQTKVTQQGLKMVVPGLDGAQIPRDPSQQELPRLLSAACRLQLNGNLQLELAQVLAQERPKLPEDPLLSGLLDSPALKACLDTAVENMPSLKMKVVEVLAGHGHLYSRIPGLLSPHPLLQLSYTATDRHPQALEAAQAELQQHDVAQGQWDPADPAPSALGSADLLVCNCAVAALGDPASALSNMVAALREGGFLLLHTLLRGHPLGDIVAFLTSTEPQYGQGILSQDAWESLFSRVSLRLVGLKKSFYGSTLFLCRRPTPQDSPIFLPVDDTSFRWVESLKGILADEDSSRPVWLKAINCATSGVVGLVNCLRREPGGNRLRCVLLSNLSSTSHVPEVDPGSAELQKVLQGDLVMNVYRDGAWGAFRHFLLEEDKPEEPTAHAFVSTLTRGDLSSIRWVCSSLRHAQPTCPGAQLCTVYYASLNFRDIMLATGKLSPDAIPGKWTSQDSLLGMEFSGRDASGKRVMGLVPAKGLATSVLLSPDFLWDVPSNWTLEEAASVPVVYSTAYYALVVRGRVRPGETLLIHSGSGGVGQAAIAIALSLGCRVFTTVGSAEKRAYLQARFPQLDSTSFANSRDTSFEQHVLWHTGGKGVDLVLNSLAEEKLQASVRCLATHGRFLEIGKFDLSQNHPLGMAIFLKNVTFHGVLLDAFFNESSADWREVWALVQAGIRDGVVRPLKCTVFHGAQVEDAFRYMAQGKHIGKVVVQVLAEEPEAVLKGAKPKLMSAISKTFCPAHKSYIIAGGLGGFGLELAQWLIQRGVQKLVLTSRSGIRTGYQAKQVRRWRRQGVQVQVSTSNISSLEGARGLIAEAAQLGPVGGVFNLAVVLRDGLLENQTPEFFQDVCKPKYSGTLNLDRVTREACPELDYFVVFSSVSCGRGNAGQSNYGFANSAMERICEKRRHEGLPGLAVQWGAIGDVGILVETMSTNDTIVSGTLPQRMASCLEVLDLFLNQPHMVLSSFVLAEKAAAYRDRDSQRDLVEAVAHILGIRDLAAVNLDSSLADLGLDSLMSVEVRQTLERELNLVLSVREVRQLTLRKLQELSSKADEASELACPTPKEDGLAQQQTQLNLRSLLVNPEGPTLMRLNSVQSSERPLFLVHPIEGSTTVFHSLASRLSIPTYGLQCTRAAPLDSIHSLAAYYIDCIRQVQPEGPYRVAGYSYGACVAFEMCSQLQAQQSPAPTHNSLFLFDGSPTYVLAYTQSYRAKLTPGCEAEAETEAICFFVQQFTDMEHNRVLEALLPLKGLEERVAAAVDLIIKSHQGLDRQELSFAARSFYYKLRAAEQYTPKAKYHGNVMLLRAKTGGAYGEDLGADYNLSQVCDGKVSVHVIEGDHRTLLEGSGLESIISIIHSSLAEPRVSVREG
T5 sequence (P21554 whole entry): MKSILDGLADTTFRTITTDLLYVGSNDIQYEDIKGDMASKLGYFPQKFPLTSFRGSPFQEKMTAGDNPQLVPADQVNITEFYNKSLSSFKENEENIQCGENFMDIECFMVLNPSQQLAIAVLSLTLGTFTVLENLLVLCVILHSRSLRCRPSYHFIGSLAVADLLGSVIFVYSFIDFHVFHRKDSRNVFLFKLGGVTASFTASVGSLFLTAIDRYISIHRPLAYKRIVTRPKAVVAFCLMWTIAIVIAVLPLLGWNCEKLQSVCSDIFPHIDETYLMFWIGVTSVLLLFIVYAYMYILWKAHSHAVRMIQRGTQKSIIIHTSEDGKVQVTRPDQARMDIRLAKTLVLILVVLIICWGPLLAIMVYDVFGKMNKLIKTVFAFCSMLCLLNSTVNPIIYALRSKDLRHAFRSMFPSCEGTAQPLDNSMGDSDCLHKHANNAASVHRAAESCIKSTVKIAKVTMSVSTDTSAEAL
T8 sequence (P41145 whole entry): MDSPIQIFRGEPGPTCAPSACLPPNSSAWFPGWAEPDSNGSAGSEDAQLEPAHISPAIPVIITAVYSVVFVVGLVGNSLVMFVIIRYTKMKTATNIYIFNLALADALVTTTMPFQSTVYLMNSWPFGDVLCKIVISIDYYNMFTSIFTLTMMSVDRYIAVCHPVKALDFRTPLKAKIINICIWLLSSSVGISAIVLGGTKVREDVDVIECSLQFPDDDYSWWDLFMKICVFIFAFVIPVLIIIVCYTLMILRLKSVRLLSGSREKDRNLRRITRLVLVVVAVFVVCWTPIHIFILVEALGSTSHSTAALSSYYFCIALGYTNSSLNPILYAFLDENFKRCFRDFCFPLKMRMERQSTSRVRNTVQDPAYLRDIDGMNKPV
T7 sequence (P34972 whole entry): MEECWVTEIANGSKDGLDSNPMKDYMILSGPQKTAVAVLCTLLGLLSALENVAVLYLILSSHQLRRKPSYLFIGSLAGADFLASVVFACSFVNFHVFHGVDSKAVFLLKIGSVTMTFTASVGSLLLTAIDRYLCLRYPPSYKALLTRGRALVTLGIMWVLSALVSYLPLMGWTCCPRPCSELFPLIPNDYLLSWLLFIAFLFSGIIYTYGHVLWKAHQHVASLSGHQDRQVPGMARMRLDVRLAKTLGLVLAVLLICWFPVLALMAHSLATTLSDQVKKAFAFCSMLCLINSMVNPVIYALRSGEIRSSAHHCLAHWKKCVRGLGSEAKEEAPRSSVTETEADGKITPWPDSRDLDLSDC
T4 sequence (Q9Y2T6 whole entry): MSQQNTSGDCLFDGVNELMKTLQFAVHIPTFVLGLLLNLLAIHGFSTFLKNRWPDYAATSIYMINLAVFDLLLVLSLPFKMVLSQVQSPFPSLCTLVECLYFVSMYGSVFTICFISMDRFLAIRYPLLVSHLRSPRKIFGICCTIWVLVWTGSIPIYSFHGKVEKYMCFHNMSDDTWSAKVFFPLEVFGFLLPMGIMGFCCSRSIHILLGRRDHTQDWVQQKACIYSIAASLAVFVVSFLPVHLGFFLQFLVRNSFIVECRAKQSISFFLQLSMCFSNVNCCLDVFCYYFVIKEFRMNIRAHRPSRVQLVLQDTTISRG
T6 sequence (Q9HC97 whole entry): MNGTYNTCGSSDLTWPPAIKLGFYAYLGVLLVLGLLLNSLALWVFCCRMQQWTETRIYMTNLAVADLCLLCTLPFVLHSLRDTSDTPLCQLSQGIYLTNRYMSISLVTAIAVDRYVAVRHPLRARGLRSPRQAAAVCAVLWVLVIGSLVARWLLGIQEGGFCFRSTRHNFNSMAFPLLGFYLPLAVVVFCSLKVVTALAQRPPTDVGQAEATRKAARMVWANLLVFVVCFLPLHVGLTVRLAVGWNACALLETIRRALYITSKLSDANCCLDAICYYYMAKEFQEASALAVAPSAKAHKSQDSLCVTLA
Mucolipin-3, sequence (Q8TDD5 whole entry, the tested form may be a part): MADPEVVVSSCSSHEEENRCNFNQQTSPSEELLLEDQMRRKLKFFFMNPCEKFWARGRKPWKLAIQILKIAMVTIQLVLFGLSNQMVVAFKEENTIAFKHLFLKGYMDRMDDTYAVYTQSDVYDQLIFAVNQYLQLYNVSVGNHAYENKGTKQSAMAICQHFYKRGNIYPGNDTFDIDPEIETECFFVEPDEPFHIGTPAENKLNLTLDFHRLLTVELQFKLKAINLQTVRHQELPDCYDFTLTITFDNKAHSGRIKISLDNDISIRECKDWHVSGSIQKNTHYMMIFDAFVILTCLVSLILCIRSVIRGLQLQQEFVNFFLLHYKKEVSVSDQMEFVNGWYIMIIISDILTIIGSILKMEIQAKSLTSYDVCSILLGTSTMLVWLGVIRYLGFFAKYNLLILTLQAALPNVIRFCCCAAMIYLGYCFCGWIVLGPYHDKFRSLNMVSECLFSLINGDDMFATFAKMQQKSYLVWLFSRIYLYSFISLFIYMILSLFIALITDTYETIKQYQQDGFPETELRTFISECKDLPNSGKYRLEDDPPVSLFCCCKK

Structure (SMILES): Cc1ccc2nc(O)cc(C(=O)OCC(=O)c3ccccc3)c2c1
- IC50 [1]: > 79.4 µM (inactive)
- IC50 [2]: > 79.4 µM (inactive)
- IC50 [3]: > 79.4 µM (inactive)

Structure (SMILES): COC(=O)N1C(=O)[C@](c2ccccc2)(C2CCCCC2)N1C(=O)OC
- CC50 [4]: > 10 µM (inactive)
- CC50 [5]: > 10 µM (inactive)
- IC50 [6]: 25.5 µM (active)
- IC50 [7]: 0.929 µM (active)
- IC50 [8]: 0.968 µM (active)

Structure (SMILES): Cc1cccn2c(=O)c3cc(C(=O)NCc4ccco4)c(=N)n(C4CCCC4)c3nc12
- IC50 [9]: 1.68 µM (active)
- IC50 [10]: > 32 µM (inactive)
- EC50 [11]: > 32 µM (inactive)
- IC50 [12]: > 32 µM (inactive)
- EC50 [13]: > 32 µM (inactive)
- IC50 [14]: > 32 µM (inactive)
- IC50 [15]: 0.407 µM (active)
- EC50 [16]: > 32 µM (inactive)

Structure (SMILES): CCOC(=O)c1c(-n2c(C)cc(C=O)c2C)sc2c1CCCC2
- EC50 [17]: > 49.8 µM (inactive)
- EC50 [18]: > 16.6 µM (not active)

Structure (SMILES): N#Cc1ccccc1S(=O)(=O)n1c(N)nc2ccccc21
- IC50 [19]: > 20 µM (inactive)
- IC50 [20]: > 20 µM (inactive)
- IC50 [21]: > 20 µM (inactive)
- IC50 [22]: > 20 µM (inactive)

Structure (SMILES): CC(C)c1ccc(CSc2nnc(-c3ccccn3)n2Cc2cccs2)cc1
- EC50 [23]: 2.17 µM (active)
- EC50 [24]: > 32 µM (inactive)
- EC50 [25]: > 32 µM (inactive)
- EC50 [26]: 3.66 µM (active)

Structure (SMILES): COc1ccc(CNC(=S)Nc2ccncc2)cc1
- IC50 [27]: > 150 µM (active)

Structure (SMILES): CCCc1ccc(C(=O)NC(=O)c2ccccc2O)cc1
- IC50 [28]: 4.87 µM (active)
- IC50 [29]: 3.97 µM (active)
- EC50 [30]: > 3.32 µM (inactive)
- EC50 [31]: 14.7 µM (not active)
- IC50 [32]: 8.68 µM (active)
